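Five concentrations, 48 hours, 96-well plates. Here, GI50 denotes the concentration required for 50% inhibition of growth. Definition used: TGI = concentration required for complete inhibition of growth.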
Tests used:
Assay in all cases: growth of human tumour cells (NCI), 48 h
[1] = tested on: IGROV1 ovarian
[2] = tested on: MDA-MB-231 breast
[3] = tested on: OVCAR-4 ovarian
[4] = tested on: MDA-N
[5] = tested on: LOX IMVI melanoma
[6] = tested on: SNB-19 CNS
[7] = tested on: NCI-H23 lung
[8] = tested on: HT29 colon
[9] = tested on: SK-MEL-5 melanoma
[10] = tested on: SF-539 CNS

Structure (SMILES) | TGI [1] | TGI [2] | TGI [3] | TGI [4] | TGI [5] | TGI [6] | TGI [7] | TGI [8] | TGI [9] | TGI [10] | GI50 [1] | GI50 [10] | GI50 [2] | GI50 [6] | GI50 [7] | GI50 [8] | GI50 [9] | GI50 [5]
O=C(OCC(Cl)(Cl)Cl)O[C@@H]1CCCC1(c1ccccc1)c1ccccc1 | > 100 µM | > 100 µM | > 100 µM | > 100 µM | > 100 µM | > 100 µM | > 100 µM | > 100 µM | > 100 µM |  |  |  |  |  |  |  |  | 
C[C@@H]1S[C@H](c2c(Cl)cccc2Cl)N2Cc3ccccc3N=C12 | > 100 µM | > 100 µM | > 100 µM | > 100 µM | > 100 µM | > 100 µM | > 100 µM |  | > 100 µM | > 100 µM |  |  |  |  |  |  |  | 
CC1=NC(=Cc2ccc([N+](=O)[O-])cc2)C(=O)N1n1c(-c2ccccc2)nc2ccccc2c1=O | > 100 µM | > 100 µM |  | > 100 µM | > 100 µM | > 100 µM | 81.2 µM | > 100 µM | > 100 µM | > 100 µM |  |  |  |  |  |  |  | 
CCc1nc2ccc(NCCN(C)C)c3c(=O)c4ccccc4n1c23 | 4.82 µM | 2.36 µM | 4.35 µM |  | 2.63 µM | 16.5 µM | 3.23 µM | 5.08 µM | 2.32 µM | 15 µM |  |  |  |  |  |  |  | 
CC(=O)N(O)c1ccc(-c2nc3ccccc3s2)cc1 | > 100 µM | > 100 µM | > 100 µM | > 100 µM | > 100 µM | > 100 µM | > 100 µM | > 100 µM | > 100 µM |  |  |  |  |  |  |  |  | 
COc1ccc(C(C2=C(O)COC2=O)c2cc3c(cc2O)OCO3)cc1OC (stereo not drawn) | > 100 µM | > 100 µM | > 100 µM | > 100 µM | > 100 µM | > 100 µM |  | > 100 µM | > 100 µM | > 100 µM |  |  |  |  |  |  |  | 
O=c1cnn(CCOCP(=O)(O)O)c(=O)[nH]1 | > 100 µM | > 100 µM |  | > 100 µM | > 100 µM | > 100 µM | > 100 µM | > 100 µM | > 100 µM | > 100 µM |  |  |  |  |  |  |  | 
O=C(CCc1ccccc1)ON1C(=S)C(c2ccccc2)(c2ccccc2)N=C1Sc1ccccc1 | 55.5 µM | > 100 µM | > 100 µM |  | 42.4 µM | > 100 µM | > 100 µM | > 100 µM | > 100 µM | > 100 µM |  |  |  |  |  |  |  | 
Oc1[nH]c2ccccc2c1/C=c1/cc2c(c(-c3ccc(F)cc3)n1)=Nc1ccccc1-2 | 1.93 µM | 2.39 µM |  |  |  | 32.6 µM | 3.11 µM | 1.43 µM | 3.06 µM | 1.81 µM | 0.554 µM | 0.477 µM | 0.609 µM | 1.43 µM | 1.16 µM | 0.384 µM | 1.41 µM | 
O=C(NNc1nc(-c2ccccc2)cs1)C(F)(F)F | > 100 µM | > 100 µM | > 100 µM |  | > 100 µM | > 100 µM | > 100 µM | > 100 µM | > 100 µM |  |  |  |  |  |  |  |  | 
Cc1c(/C=N/N(C)C)oc2c1cc(O)c1ncccc12 | 55.7 µM |  | 96.6 µM |  | 45.2 µM | > 100 µM | > 100 µM | > 100 µM | 39.3 µM |  |  |  |  |  |  |  |  | 
NC(Cc1ccc(S(=O)(=O)O)cc1)C(=O)NC(Cc1ccc(S(=O)(=O)O)cc1)C(=O)O (stereo not drawn) | > 100 µM | > 100 µM | > 100 µM | > 100 µM | > 100 µM |  | > 100 µM | > 100 µM | > 100 µM | > 100 µM |  |  |  |  |  |  |  | 
CCOC(=O)Cc1nc2c(N)ncnc2n1C1OC(COC(C)=O)C(OC(C)=O)C1OC(C)=O (stereo not drawn) | > 100 µM | > 100 µM |  | > 100 µM | > 100 µM | > 100 µM | > 100 µM | > 100 µM | > 100 µM | > 100 µM |  |  |  |  |  |  |  | 
CN1c2ccccc2N(C(=O)c2ccccc2)C(CC(=O)O)c2cccn21 (stereo not drawn) | > 100 µM |  | > 100 µM |  | > 100 µM | > 100 µM | > 100 µM | > 100 µM | > 100 µM | > 100 µM |  |  |  |  |  |  |  | 
CC(C)C1N(C)c2ccc(Cl)cc2[C@H]2c3ccccc3CCN12 (stereo partly drawn) | > 100 µM | 96.2 µM | > 100 µM | 92 µM | 55.7 µM | > 100 µM | > 100 µM | 90.7 µM |  | > 100 µM |  |  |  |  |  |  |  | 
Cc1nc2ccccc2c(/C=C/c2ccc(Cl)cc2)c1C(=O)/C=C/c1ccc(Cl)cc1 |  |  |  |  | 2.55 µM | 2.94 µM |  | > 100 µM | 3 µM | 3.14 µM |  | 1.71 µM |  | 1.57 µM |  | 0.739 µM | 1.62 µM | 1.22 µM
CC(=O)Oc1ccc(/C=C/C(=O)O[C@@H](C(=O)O)[C@@H](OC(=O)/C=C/c2ccc(OC(C)=O)c(OC(C)=O)c2)C(=O)O)cc1OC(C)=O | > 100 µM | > 100 µM | > 100 µM | > 100 µM | > 100 µM | > 100 µM | > 100 µM |  | > 100 µM |  |  |  |  |  |  |  |  | 
Cc1nc2c(=S)n(C)ncc2[nH]1 | > 100 µM | > 100 µM | > 100 µM | > 100 µM | > 100 µM |  | > 100 µM | > 100 µM | > 100 µM | > 100 µM |  |  |  |  |  |  |  | 
CSc1c(C(=O)Nc2ccc(Cl)cc2)c(N)n(N)c(=O)c1C#N |  | > 100 µM | > 100 µM | > 100 µM | > 100 µM | > 100 µM | > 100 µM | > 100 µM | > 100 µM | > 100 µM |  |  |  |  |  |  |  | 
CN(C)CCNC(=O)c1cccc2c1Oc1c(cccc1[N+](=O)[O-])O2 | 8.9 µM |  | > 100 µM | 12.6 µM | 10.5 µM |  | 9.58 µM | 5.78 µM | 3.24 µM | 4.85 µM |  |  |  |  |  |  |  | 
COc1cc2nc(-c3cccs3)[nH]c(=O)c2cc1OC | > 100 µM | > 100 µM | > 100 µM |  | > 100 µM | > 100 µM | > 100 µM | > 100 µM | > 100 µM | > 100 µM |  |  |  |  |  |  |  | 
CCOC(=O)N(c1ccccc1)N(CC)C(=O)/C(C)=N/Nc1ccc([N+](=O)[O-])cc1 | 33 µM |  | 42.2 µM |  |  | 34.9 µM | 36.1 µM | 31 µM |  | 30 µM |  |  |  |  |  |  |  | 
CNc1ncc(-c2nnnn2-c2ccccc2)c(CN(C)C)n1 | > 100 µM | > 100 µM |  |  | > 100 µM | > 100 µM | > 100 µM | > 100 µM | > 100 µM | > 100 µM |  |  |  |  |  |  |  | 

— PubChem BioAssay (NCI)
